Tests used:
EGFR = molecular target: T1, EGFR (Homo sapiens, UniProt P00533); test: Co-immunoprecipitation of HA-Karet with EGFR in HEK cells; type: binding; details: co-transfected HEK cells
T1 construct: expressed in transfected cells; host or cells: HEK cells
Procedure: FIG. 3g is a co-immunoprecipitation assay depicting co-immunoprecipitation of HA-Karet with EGFR in co-transfected HEK cells. Cells were co-transfected with Ha Karet or control vector and EGFR. Cells were lysed with NP40, the HA-beads (i.e., beads conjugated to HA antibody) were blocked with Hek lysate, and elution was done for 30 minutes at 37° C. The membranes were probed with anti FLAG antibody. Note the co-immunoprecipitation of Karet with EGFR in HEK cells.

NNR5 cells = test: Viability of NNR5 cells transfected with Karet constructs with or without TrkA; type: cell-based, rat
Procedure: FIG. 5f is a viable cell count histogram depicting that the pro-apoptotic effect of Karet is TrkA dependent. NNR5 cells were electroporated with GFP with or without TrkA construct, or Karet with or without TrkA. Cells were incubated for 12 hours after electroporation and results are presented as percent of control (NNR5 transfected with GFP only, mean±SD, n=4, * p<0.05).
FIGS. 20a-q are immunochemistry (FIGS. 20a-p) and FACS (FIG. 20q) analyses of myristylated constructs of Karet, PTB and the non-PTB domain in PC12 (FIGS. 20a-p) or NNR5 (FIG. 20q) cells. Myristylated constructs of Karet (FIGS. 20e-h), PTB (FIGS. 20i-l) and the non-PTB domain (FIGS. 20m-p) or non-myristylated construct of Karet (FIGS. 20a-d) were transfected to PC12 cells and immunochemistry of the expressed constructs was performed using HA-antibody (FIG. 20a), the PTB-antibody (FIGS. 20e, i and m) or Lamin (a nuclear membrane protein)-antibody (FIGS. 20b, f, j, and n). Merged images of the two-color immunocytochemistry are shown in FIG. 20d (for anti-Ha and anti-lamin antibodies) or FIGS. 20h l, and p (for anti-PTB and anti-lamin antibodies). Note the cytoplasmic expression of non-myristylated Karet (FIG. 20a) as compared to the nuclear membrane expression of lamin (FIG. 20b). […] NNR5 cells were transfected with pcDNA3, Ha Karet and TrkA, Myr-Karet, Myr-PTB or Myr-non PTB constructs and the effect on cell viability was determined using calcein (the dead/Live kit). […]
FIGS. 22a-b are histograms depicting the effect of co-transfection of Karet and TrkA on cell death in Hek (FIG. 22a) or NNR5 (FIG. 22b) cells. […] Viability of the cells was measured 24 hours after transfection by XTT. *p<0.05; FIG. 22b—NNR5 cells were co-transfected with Karet or control vector and TrkA, TrkB and TrkC. Cells were analyzed by FACS 24 hours after transfection using the dead/live kit. ** p<0.001.
Viability of cells was evaluated using the Live/dead viability/cytotoxicity kit (Cat. No. L-3224), Molecular Probes, Inc., Eugene, Oreg., USA, according to manufacturer's instructions.

Hek cells = test: Viability (XTT) and morphology of Hek cells co-transfected with Karet and receptors; type: cell-based, human; details: 24 hours after transfection; for cell morphology: microscope
Procedure: FIGS. 21a-q are photomicrographs of Hek cells 24 hours after transfection with karet, Trk receptors, EGFR and/or P75 constructs. […] FIG. 21a—cells transfected with TrkA and pcDNA3; FIG. 21b—TrkA and Karet; FIG. 21c—TrkA and Karet F217V; FIG. 21d—Karet and pcDNA4; FIG. 21e—Karet F217V and pcDNA4; FIG. 21f—TrIcA and pcDNA3; FIG. 21g—TrkB and pcDNA3; FIG. 21h—TrkC and pcDNA3; FIG. 21i—TrkA and Karet;
FIG. 21j—TrkB and Karet; FIG. 21k—TrkC and Karet; FIG. 21l—Karet and pcDNA3; FIG. 21m—TrkC (low concentration) and pcDNA3; FIG. 21n—EGFR-Flag and pcDNA3; FIG. 21o—p75 and pcDNA3; FIG. 21p—EGFR-Flag and Ha-Karet; FIG. 21q—p75 and Ha-Karet.
FIGS. 22a-b are histograms depicting the effect of co-transfection of Karet and TrkA on cell death in Hek (FIG. 22a) or NNR5 (FIG. 22b) cells. FIG. 22a—Hek cells were co-transfected with Karet or control vector and TrkA, TrkB and TrkC. Viability of the cells was measured 24 hours after transfection by XTT. *p<0.05; FIG. 22b—NNR5 cells were co-transfected with Karet or control vector and TrkA, TrkB and TrkC. Cells were analyzed by FACS 24 hours after transfection using the dead/live kit. ** p<0.001.
FIG. 23 is a histogram depicting the effect of co-transfection of EGFR and Karet on cell death in Hek cells. Hek cells were co-transfected with Karet or control vector and p75, EGFR and PTB. Viability of the cells was measured 24 hours after transfection by XTT. ** p<0.001.
Cell proliferation was evaluated using the Cell proliferation assay with XTT reagent (Cat. No. 20-300-1000), Biological Industries, Beth Haemek, Israel, according to manufacturer's instructions.
To test whether Karet is capable of inducing cell death in other cells such as human HEK or NNR5 cells, the cells were transfected with various receptors and Karet constructs and the effect on cell death was determined by microscopic observation of cell morphology and using cell viability assays, as follows.

[1] = Hek cells co-transfected with TrkA

“Karet: full-length mouse Karet protein (SEQ ID NO:1), PTB domain protein, expressed from pcDNA3 with HA tag” was tested, and the “co-immunoprecipitation with EGFR” value (EGFR) was “co-immunoprecipitation”, the cell viability (NNR5 cells; NNR5 (TrkA deficient), Karet without TrkA) was “no reduction in cell viability” and the “reduction in cell survival” value (NNR5 cells; NNR5 co-transfected with Karet and TrkA, 12 hours after electroporation, percent of control) was “about 20%”. The decrease in viability (NNR5 cells; NNR5 co-transfected with Karet and TrkA, FACS dead/live kit, 24 hours after transfection) was 13%, the “decrease in living cells” value (Hek cells; HEK cells co-transfected with Karet and TrkA, XTT) was 50% and the “decrease in cell viability” value (Hek cells; Hek cells co-transfected with EGFR and Karet, XTT) was 40%. The cell morphology (Hek cells; Hek cells co-transfected with EGFR) was “morphology change which is consistent with cell death” and the cell morphology (Hek cells; [1]) was “morphology change which is consistent with cell death”.

For “Karet F217V: full-length mouse Karet with phenyl alanine at position 217 point mutated to valine”, the cell morphology (Hek cells; [1]) was “transfection-induced cell death”.
